The assay relates to GM01896 cells (MPS II dermal fibroblasts). In words: Assay 1: MPS cellular assay, MPS II (heparan sulfate disaccharide biomarkers by LC-MS). In kind it is cell-based, human. Conditions: Homo sapiens, Fibroblast, Assay 1 for MPS II, heparan sulfate disaccharide biomarkers (I2a4, I2a6, I2S0 and/or I2S6), read-out: IC50 Range. The essentials: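 Heparan sulfate disaccharide biomarkers quantified by LC-MS after heparinase I/II/III digestion and isotopic aniline labelling, using GM01896 MPS II fibroblasts exposed to compound (at or below 30 μM, 4-21 days). Values given as IC50 by curve fitting; cell viability checked with alamar blue or ATP.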
For orientation: IC50 means the point on the concentration scale where inhibition reaches its midpoint. Consider `Cn1ncc2ccc(-c3cc(Nc4ccc(-c5nnc(C(F)(F)F)[nH]5)cc4)nc(N4CCOCC4)n3)cc21` [[6-(1-methyl(1H-indazol-6-yl))-2-morpholin-4-ylpyrimidin-4-yl]{4-[5-(trifluoromethyl)(4H-1,2,4-triazol-3-yl)]phenyl}amine], for which the IC50 lay in the range of 1000 to 5000 nM. The figure for `Cn1ncc2ccc(-c3cc(Nc4ccc(-c5ncc(C(F)(F)F)[nH]5)cc4)nc(N4CCOCC4)n3)cc21` [[6-(1-methyl(1H-indazol-6-yl))-2-morpholin-4-ylpyrimidin-4-yl]{4-[5-(trifluoromethyl)imidazol-2-yl]phenyl}amine] is 500 to 1000 nM; for `Cc1ccc(Nc2cc(-c3ccc4c(c3)ncn4C)nc(N3CCOCC3)n2)cc1` [[6-(1-methylbenzimidazol-5-yl)-2-morpholin-4-ylpyrimidin-4-yl](4-methylphenyl)amine] it is 500 to 1000 nM; for `Cc1ccc(Nc2cc(-c3ccc4ncn(C)c4c3)nc(N3CCOCC3)n2)cc1` [[6-(1-methylbenzimidazol-6-yl)-2-morpholin-4-ylpyrimidin-4-yl](4-methylphenyl)amine] it is 1000 to 5000 nM. The value for `Cn1cnc2ccc(-c3cc(Nc4ccccc4)nc(N4CCOCC4)n3)cc21` [[6-(1-methylbenzimidazol-6-yl)-2-morpholin-4-ylpyrimidin-4-yl]phenylamine] was 1000 to 5000 nM. For `Cn1nc(Cl)c2ccc(-c3cc(Nc4ccc(Cl)cc4)nc(N4CCOCC4)n3)cc21` [[6-(3-chloro-1-methyl(1H-indazol-6-yl))-2-morpholin-4-ylpyrimidin-4-yl](4-chlorophenyl)amine], the IC50 lay in the range of 1000 to 5000 nM. The figure for `Cn1ncc2ccc(-c3cc(Nc4ccc5ncoc5c4)nc(N4CCOCC4)n3)cc21` [benzoxazol-6-yl[6-(1-methyl(1H-indazol-6-yl))-2-morpholin-4-ylpyrimidin-4-yl]amine] is 1000 to 5000 nM. As for `CN(C)c1ccc(Nc2cc(-c3ccc4ncn(C)c4c3)nc(N3CCOCC3)n2)cc1` [dimethyl(4-{[6-(1-methylbenzimidazol-6-yl)-2-morpholin-4-ylpyrimidin-4-yl]amino}phenyl)amine], the IC50 fell in the range of 1000 to 5000 nM.

For `CN(C)CCCc1nn(C)c2cc(-c3cc(Nc4ccc5ccn(C)c5c4)nc(N4CCOCC4)n3)ccc12` [dimethyl[3-(1-methyl-6-{6-[(1-methylindol-6-yl)amino]-2-morpholin-4-ylpyrimidin-4-yl} (1H-indazol-3-yl))propyl]amine], the IC50 is less than 500 nM. For the compound `Cn1ncc2ccc(-c3cc(Nc4ccc5cc[nH]c5c4)nc(N4CCOCC4)n3)cc21` [indol-6-yl[6-(1-methyl(1H-indazol-6-yl))-2-morpholin-4-ylpyrimidin-4-yl]amine], the IC50 lay within 1000 to 5000 nM. In the case of `Cn1nc(CCN2CCOCC2)c2ccc(-c3cc(Nc4ccc5cc[nH]c5c4)nc(N4CCOCC4)n3)cc21` [indol-6-yl{6-[1-methyl-3-(2-morpholin-4-ylethyl)(1H-indazol-6-yl)]-2-morpholin-4-ylpyrimidin-4-yl}amine], the IC50 lay within 500 to 1000 nM. Regarding `COC(=O)c1ccc(Nc2cc(-c3ccc4cnn(CCCN5CCOCC5)c4c3)nc(N3CCOCC3)n2)cc1` [methyl 4-({2-morpholin-4-yl-6-[1-(3-morpholin-4-ylpropyl)(1H-indazol-6-yl)]pyrimidin-4-yl}amino)benzoate], the IC50 lay within 500 to 1000 nM.

For the compound `COCCn1ncc2ccc(-c3cc(Nc4ccc(C(=O)OC)cc4)nc(N4CCOCC4)n3)cc21` [methyl 4-({6-[1-(2-methoxyethyl)(1H-indazol-6-yl)]-2-morpholin-4-ylpyrimidin-4-yl}amino)benzoate], the IC50 was in the range of 500 to 1000 nM. The figure for `COCCn1cnc2ccc(-c3cc(Nc4ccc(C(=O)OC)cc4)nc(N4CCOCC4)n3)cc21` [methyl 4-({6-[1-(2-methoxyethyl)benzimidazol-6-yl]-2-morpholin-4-ylpyrimidin-4-yl}amino)benzoate] is less than 500 nM. Take `COC(=O)c1ccc(Nc2cc(-c3ccc4cnn(C)c4c3)nc(N3CCOCC3)n2)cc1` [methyl 4-{[6-(1-methyl(1H-indazol-6-yl))-2-morpholin-4-ylpyrimidin-4-yl]amino}benzoate]: the IC50 is 1000 to 5000 nM.

For the compound `CNS(=O)(=O)c1ccc(Nc2cc(-c3ccc4cnn(C)c4c3)nc(N3CCOCC3)n2)cc1` [methyl[(4-{[6-(1-methyl(1H-indazol-6-yl))-2-morpholin-4-ylpyrimidin-4-yl]amino}phenyl)sulfonyl]amine], the IC50 is 1000 to 5000 nM.

As for `CN(C)CCNc1nn(C)c2cc(-c3cc(Nc4ccc(Cl)cc4)nc(N4CCOCC4)n3)ccc12` [{2-[(6-{6-[(4-chlorophenyl)amino]-2-morpholin-4-ylpyrimidin-4-yl}-1-methyl(1H-indazol-3-yl))amino]ethyl}dimethylamine], the half-maximal inhibitory concentration (IC50) was 500 to 1000 nM. Consider `CNC(=O)c1ccc(Nc2cc(-c3ccc4cnn(CCN(C)C)c4c3)nc(N3CCOCC3)n2)cc1` [{4-[(6-{1-[2-(dimethylamino)ethyl](1H-indazol-6-yl)}-2-morpholin-4-ylpyrimidin-4-yl)amino]phenyl}-N-methylcarboxamide], for which the IC50 was in the range of 500 to 1000 nM. As to `CNC(=O)c1ccc(Nc2cc(-c3ccc4c(c3)ncn4CCN(C)C)nc(N3CCOCC3)n2)cc1` [{4-[(6-{1-[2-(dimethylamino)ethyl]benzimidazol-5-yl}-2-morpholin-4-ylpyrimidin-4-yl)amino]phenyl}-N-methylcarboxamide], the IC50 lay within 1000 to 5000 nM. The value for `CNC(=O)c1ccc(Nc2cc(-c3ccc4ncn(CCN(C)C)c4c3)nc(N3CCOCC3)n2)cc1` [{4-[(6-{1-[2-(dimethylamino)ethyl]benzimidazol-6-yl}-2-morpholin-4-ylpyrimidin-4-yl)amino]phenyl}-N-methylcarboxamide] was less than 500 nM; that for `CNC(=O)c1ccc(Nc2cc(-c3ccc4ncn(CCCN(C)C)c4c3)nc(N3CCOCC3)n2)cc1` [{4-[(6-{1-[3-(dimethylamino)propyl]benzimidazol-6-yl}-2-morpholin-4-ylpyrimidin-4-yl)amino]phenyl}-N-methylcarboxamide] was 1000 to 5000 nM; that for `CNC(=O)c1ccc(Nc2cc(-c3ccc4cn(CCN(C)C)nc4c3)nc(N3CCOCC3)n2)cc1` [{4-[(6-{2-[2-(dimethylamino)ethyl](2H-indazol-6-yl)}-2-morpholin-4-ylpyrimidin-4-yl)amino]phenyl}-N-methylcarboxamide] was less than 500 nM. For the compound `CNC(=O)c1ccc(Nc2cc(-c3ccc4[nH]ncc4c3)nc(N3CCOCC3)n2)cn1` [{5-[(6-(1H-indazol-5-yl)-2-morpholin-4-ylpyrimidin-4-yl)amino](2-pyridyl)}-N-methylcarboxamide], the IC50 is 500 to 1000 nM. Consider `CNC(=O)c1ccc(Nc2cc(-c3ccc4cn[nH]c4c3)nc(N3CCOCC3)n2)cn1` [{5-[(6-(1H-indazol-6-yl)-2-morpholin-4-ylpyrimidin-4-yl)amino](2-pyridyl)}-N-methylcarboxamide], for which the IC50 lay in the range of 500 to 1000 nM. The value for `CNC(=O)c1ccc(Nc2cc(-c3ccc4nc[nH]c4c3)nc(N3CCOCC3)n2)cn1` [{5-[(6-benzimidazol-6-yl-2-morpholin-4-ylpyrimidin-4-yl)amino](2-pyridyl)}-N-methylcarboxamide] was 1000 to 5000 nM; that for `Cn1ccc2ccc(Nc3cc(-c4ccc5nc(CCN6CCOCC6)n(CC6CC6)c5c4)nc(N4CCOCC4)n3)cc21` [{6-[1-(cyclopropylmethyl)-2-(2-morpholin-4-ylethyl)benzimidazol-6-yl]-2-morpholin-4-ylpyrimidin-4-yl}(1-methylindol-6-yl)amine] was less than 500 nM. Regarding `Cc1nc2ccc(-c3cc(Nc4ccc5ccn(C)c5c4)nc(N4CCOCC4)n3)cc2n1CC1CC1` [{6-[1-(cyclopropylmethyl)-2-methylbenzimidazol-6-yl]-2-morpholin-4-ylpyrimidin-4-yl}(1-methylindol-6-yl)amine], the IC50 was less than 500 nM. With `Cc1nnc(-c2ccc(Nc3cc(-c4ccc5nc(C)n(CC6CC6)c5c4)nc(N4CCOCC4)n3)cc2)[nH]1` [{6-[1-(cyclopropylmethyl)-2-methylbenzimidazol-6-yl]-2-morpholin-4-ylpyrimidin-4-yl}[4-(5-methyl(4H-1,2,4-triazol-3-yl))phenyl]amine], the IC50 is less than 500 nM. The figure for `Cc1c(C)n(C)c2cc(Nc3cc(-c4ccc5c(CCN6CCOCC6)nn(C)c5c4)nc(N4CCOCC4)n3)ccc12` [{6-[1-methyl-3-(2-morpholin-4-ylethyl)(1H-indazol-6-yl)]-2-morpholin-4-ylpyrimidin-4-yl}(1,2,3-trimethylindol-6-yl)amine] is 500 to 1000 nM. With `Cn1nc(CCN2CCOCC2)c2ccc(-c3cc(Nc4ccc(-n5nccn5)cc4)nc(N4CCOCC4)n3)cc21` [{6-[1-methyl-3-(2-morpholin-4-ylethyl)(1H-indazol-6-yl)]-2-morpholin-4-ylpyrimidin-4-yl}(4-(1,2,3-triazol-2-yl)phenyl)amine], the IC50 was less than 500 nM.

As for `Cn1nc(CCN2CCOCC2)c2ccc(-c3cc(Nc4ccc(-c5ncco5)cc4)nc(N4CCOCC4)n3)cc21` [{6-[1-methyl-3-(2-morpholin-4-ylethyl)(1H-indazol-6-yl)]-2-morpholin-4-ylpyrimidin-4-yl}(4-(1,3-oxazol-2-yl)phenyl)amine], the IC50 is 500 to 1000 nM. With `Cn1nc(CCN2CCOCC2)c2ccc(-c3cc(Nc4ccc(-c5cocn5)cc4)nc(N4CCOCC4)n3)cc21` [{6-[1-methyl-3-(2-morpholin-4-ylethyl)(1H-indazol-6-yl)]-2-morpholin-4-ylpyrimidin-4-yl}(4-(1,3-oxazol-4-yl)phenyl)amine], the IC50 was less than 500 nM.

As to `Cc1ccc(Nc2cc(-c3ccc4c(CCN5CCOCC5)nn(C)c4c3)nc(N3CCOCC3)n2)cc1` [{6-[1-methyl-3-(2-morpholin-4-ylethyl)(1H-indazol-6-yl)]-2-morpholin-4-ylpyrimidin-4-yl}(4-methylphenyl)amine], the IC50 lay within 500 to 1000 nM.

For `Cn1nc(CCN2CCOCC2)c2ccc(-c3cc(Nc4ccc(-c5ccn[nH]5)cc4)nc(N4CCOCC4)n3)cc21` [{6-[1-methyl-3-(2-morpholin-4-ylethyl)(1H-indazol-6-yl)]-2-morpholin-4-ylpyrimidin-4-yl}(4-pyrazol-5-ylphenyl)amine], the IC50 was less than 500 nM.

The values are drawn from US20190151312A1, “HEPARAN SULFATE BIOSYNTHESIS INHIBITORS FOR THE TREATMENT OF DISEASES” (BioMarin Pharmaceutical Inc., priority 2014, published 2019).
